Data on three compounds can be found in ChEMBL document CHEMBL5729124, “Autotaxin inhibitor compounds” (2022).

This assay has as its target Autotaxin (Homo sapiens, UniProt Q13822). As to the kind of experiment: Human Autotaxin Assay: ATX activity is assayed in concentrated conditioned media from Hep3B human hepatocellular carcinoma cells by measuring the amount of choline released from the substrate, lysophosphatidylcholine (LPC) as it is cleaved to LPA. Conditioned media is collected from confluent Hep3B cells and concentrated 20-fold using Centriprep-30 filter devices (Millipore).

Turning to `CCCn1cc(-n2c(Br)c(Sc3cccc(C(=O)O)c3)c3ccc(Cl)cc32)cn1`, the IC50 (as a rule, the concentration at which inhibition is half-maximal) is less than 500 nM.
Regarding `C#CCCCCn1cc(-n2c(C3CC3)c(Sc3cccc(C(=O)O)c3F)c3ccc(Cl)c(F)c32)cn1`, the IC50 is less than 500 nM.
For the compound `CC(C)(CO)Cn1cc(-n2c(C3CC3)c(Sc3cccc(C(=O)O)c3F)c3ccc(Cl)c(F)c32)cn1`, the concentration for half-maximal inhibition (IC50) is less than 500 nM.
